Here are results for five compounds from ChEMBL document CHEMBL4308902, “Synthetic approaches to isocarbacyclin and analogues as potential neuroprotective agents against ischemic stroke” (Bioorg Med Chem, 2019).

Data set [1] deals with Cortical neurone. The experiment in a line: Neuroprotection in mouse embryonic cortical neurons assessed as reduction in oxygen and glucose deprivation-induced cell death. In kind it is functional, cell-based.
Data set [2] relates to Cortical neurone. The experiment in a line: Neuroprotection in mouse embryonic cortical neurons assessed as reduction in glucose deprivation-induced cell death. Type of data set: functional, cell-based.
In data set [3] the test system is Cortical neurone. The experiment in a line: Cytotoxicity against mouse embryonic cortical neurons assessed as reduction in cell viability. Type of data set: cell-based.

Active and inactive are the calls of the source. The calls are words filed in the database; no cut-off is given here.

As to `O=C(O)CCCCC1=C[C@H]2C[C@@H](O)[C@H](/C=C/Cc3ccccc3)[C@H]2C1`, the result with Cortical neurone [1] and in the data set on Cortical neurone [2] was inactive. Moreover, the Activity entry with Cortical neurone [3] is listed as “Toxic”.
`CCCCC[C@H](O)/C=C/[C@@H]1[C@H]2CC(CCCCC(=O)O)=C[C@H]2C[C@H]1O`: the outcome in the data set on Cortical neurone [1] and with Cortical neurone [2] was inactive. The Activity result with Cortical neurone [3] was “Toxic”.
As to `C=C[C@@H]1[C@H]2CC(CCCCC(=O)O)=C[C@H]2C[C@H]1O`, the outcome with Cortical neurone [1] and in the data set on Cortical neurone [2] was inactive. Moreover, in the data set with Cortical neurone [3], the Activity entry was “Toxic”.
In the case of `CCCCCC/C=C/[C@@H]1[C@H]2CC(CCCCC(=O)O)=C[C@H]2C[C@H]1O`, the outcome with Cortical neurone [1] and with Cortical neurone [2] was inactive. The Activity result in the data set on Cortical neurone [3] is recorded as “Toxic”.
As for `CCCCCCCCCC/C=C/[C@@H]1[C@H]2CC(CCCCC(=O)O)=C[C@H]2C[C@H]1O`, the result in the data set on Cortical neurone [1] and with Cortical neurone [2] was inactive. In the data set with Cortical neurone [3], the Activity result is given as “Toxic”.
